Test results as given in ChEMBL document CHEMBL1138190, “Synthesis and antibacterial activity of novel C12 vinyl ketolides” (J Med Chem, 2006).
Values after ≈ are worked out from the molar mass of the structure shown. Active and inactive are the calls of the source. No cut-off for these calls is given here.

Tests used:
[1] = tested on: Rattus norvegicus; test: Efficacy against Streptococcus pneumoniae Erm in Sprague-Dawley rat lung infection model at 100 mg/kg; type: functional, organism-based; design: dose 100 mg/kg
[2] = tested on: Streptococcus pneumoniae; test: Antibacterial activity against Streptococcus pneumoniae Erm 10279; type: functional
[3] = tested on: Streptococcus pneumoniae; test: Antibacterial activity against Streptococcus pneumoniae Mef 1566; type: functional
[4] = tested on: Streptococcus pneumoniae; test: Antibacterial activity against Streptococcus pneumoniae Mef 10095; type: functional
[5] = tested on: Streptococcus pneumoniae; test: Antibacterial activity against Streptococcus pneumoniae Mef 9142; type: functional
[6] = tested on: Streptococcus pneumoniae; test: Antibacterial activity against Streptococcus pneumoniae Mef 4331; type: functional
[7] = tested on: Streptococcus pneumoniae; test: Antibacterial activity against Streptococcus pneumoniae Erm 5399; type: functional
[8] = tested on: Rattus norvegicus; test: Efficacy against Streptococcus pneumoniae Mef in Sprague-Dawley rat lung infection model at 50 mg/kg; type: functional, organism-based; design: dose 50 mg/kg
[9] = tested on: Streptococcus pneumoniae; test: Antibacterial activity against Streptococcus pneumoniae Mef 3855; type: functional
[10] = tested on: Streptococcus pneumoniae; test: Antibacterial activity against Streptococcus pneumoniae Erm 6396; type: functional
[11] = tested on: Streptococcus pneumoniae; test: Antibacterial activity against Streptococcus pneumoniae Mef 5654; type: functional
[12] = tested on: Streptococcus pneumoniae; test: Antibacterial activity against Streptococcus pneumoniae Erm 5354; type: functional
[13] = tested on: Enterococcus faecalis; test: Antibacterial activity against Enterococcus faecalis 29212; type: functional
[14] = tested on: Streptococcus pneumoniae; test: Antibacterial activity against Streptococcus pneumoniae Mef 983; type: functional
[15] = tested on: Streptococcus pneumoniae; test: Antibacterial activity against Streptococcus pneumoniae 280-962; type: functional
[16] = Plasma half life in Sprague-Dawley rat at 15 mg/kg, po; type: ADME, organism-based; design: dose 15 mg/kg, route oral
[17] = tested on: Staphylococcus epidermidis; test: Antibacterial activity against Staphylococcus epidermidis f50654; type: functional
[18] = tested on: Streptococcus pneumoniae; test: Antibacterial activity against Streptococcus pneumoniae Mef 5649; type: functional
[19] = tested on: Streptococcus pneumoniae; test: Antibacterial activity against Streptococcus pneumoniae Erm 4290; type: functional
[20] = tested on: Streptococcus pneumoniae; test: Antibacterial activity against Streptococcus pneumoniae 49619; type: functional
[21] = tested on: Staphylococcus epidermidis; test: Antibacterial activity against Staphylococcus epidermidis 14990; type: functional
[22] = tested on: Streptococcus pyogenes; test: Antibacterial activity against Streptococcus pyogenes 8668; type: functional
[23] = tested on: Streptococcus pneumoniae; test: Antibacterial activity against Streptococcus pneumoniae Erm 8339; type: functional
[24] = tested on: Haemophilus influenzae; test: Antibacterial activity against Haemophilus influenzae 2762; type: functional
[25] = tested on: Streptococcus pneumoniae; test: Antibacterial activity against Streptococcus pneumoniae Mef 41; type: functional
[26] = tested on: Streptococcus pneumoniae; test: Antibacterial activity against Streptococcus pneumoniae Mef S 3427; type: functional
[27] = tested on: Streptococcus pneumoniae; test: Antibacterial activity against Streptococcus pneumoniae Erm 3120; type: functional
[28] = tested on: Streptococcus pneumoniae; test: Antibacterial activity against Streptococcus pneumoniae Erm S 4085; type: functional
[29] = Oral bioavailability in Sprague-Dawley rat at 100 mg/kg, po; type: ADME, organism-based; conditions: in vivo
[30] = tested on: Streptococcus pneumoniae; test: Antibacterial activity against Streptococcus pneumoniae Erm 2218; type: functional
[31] = Volume of distribution in Sprague-Dawley rat at 5 mg/kg, iv and 15 mg/kg, po; type: ADME, organism-based; conditions: in vivo, read-out: Vdss
[32] = tested on: Streptococcus pneumoniae; test: Antibacterial activity against Streptococcus pneumoniae Mef 3449; type: functional
[33] = tested on: Streptococcus pneumoniae; test: Antibacterial activity against Streptococcus pneumoniae Mef 1790; type: functional
[34] = tested on: Streptococcus pneumoniae; test: Antibacterial activity against Streptococcus pneumoniae Mef 2880; type: functional
[35] = tested on: Rattus norvegicus; test: Plasma AUC in Sprague-Dawley rat at 5 mg/kg, iv; type: ADME, organism-based; design: dose 5 mg/kg, route intravenous; conditions: in vivo
[36] = tested on: Streptococcus pneumoniae; test: Antibacterial activity against Streptococcus pneumoniae Mef 953; type: functional
[37] = tested on: Rattus norvegicus; test: Efficacy against Haemophilus influenzae in Sprague-Dawley rat lung infection model at 100 mg/kg; type: functional, organism-based; design: dose 100 mg/kg
[38] = tested on: Staphylococcus aureus; test: Antibacterial activity against Staphylococcus aureus 29213; type: functional
[39] = tested on: Streptococcus pneumoniae; test: Antibacterial activity against Streptococcus pneumoniae Erm 6849; type: functional
[40] = tested on: Streptococcus pneumoniae; test: Antibacterial activity against Streptococcus pneumoniae Erm 4589; type: functional
[41] = tested on: Streptococcus pneumoniae; test: Antibacterial activity against Streptococcus pneumoniae Erm 8919; type: functional
[42] = tested on: Streptococcus pneumoniae; test: Antibacterial activity against Streptococcus pneumoniae Erm 5554; type: functional
[43] = tested on: Streptococcus pneumoniae; test: Antibacterial activity against Streptococcus pneumoniae Erm S 4297; type: functional
[44] = tested on: Streptococcus pneumoniae; test: Antibacterial activity against Streptococcus pneumoniae Mef S 3435; type: functional; conditions: Streptococcus pneumoniae; read-out: MIC
[45] = tested on: Streptococcus pneumoniae; test: Antibacterial activity against Streptococcus pneumoniae Mef 2382; type: functional
[46] = tested on: Streptococcus pneumoniae; test: Antibacterial activity against Streptococcus pneumoniae Mef 9959; type: functional
[47] = tested on: Streptococcus pneumoniae; test: Antibacterial activity against Streptococcus pneumoniae Mef 6966; type: functional
[48] = tested on: Streptococcus pneumoniae; test: Antibacterial activity against Streptococcus pneumoniae 297-749; type: functional
[49] = tested on: Streptococcus pneumoniae; test: Antibacterial activity against Streptococcus pneumoniae Erm 8947; type: functional
[50] = Lung half life in Sprague-Dawley rat at 15 mg/kg, po; type: ADME, organism-based; design: dose 15 mg/kg, route oral
[51] = Oral bioavailability in Sprague-Dawley rat at 15 mg/kg, po; type: ADME, organism-based; conditions: in vivo
[52] = tested on: Streptococcus pneumoniae; test: Antibacterial activity against Streptococcus pneumoniae Erm 8257; type: functional
[53] = tested on: Streptococcus pneumoniae; test: Antibacterial activity against Streptococcus pneumoniae Erm 867; type: functional
[54] = tested on: Enterococcus faecalis; test: Antibacterial activity against Enterococcus faecalis bc11148-2; type: functional
[55] = tested on: Streptococcus pneumoniae; test: Antibacterial activity against Streptococcus pneumoniae Erm 6388; type: functional
[56] = tested on: Streptococcus pneumoniae; test: Antibacterial activity against Streptococcus pneumoniae Erm 5590; type: functional
[57] = tested on: Streptococcus pneumoniae; test: Antibacterial activity against Streptococcus pneumoniae Erm 7985; type: functional
[58] = tested on: Streptococcus pneumoniae; test: Antibacterial activity against Streptococcus pneumoniae Erm 5415; type: functional
[59] = tested on: Streptococcus pneumoniae; test: Antibacterial activity against Streptococcus pneumoniae Mef 1556; type: functional
[60] = Plasma half life in Sprague-Dawley rat at 5 mg/kg, iv; type: ADME, organism-based; design: dose 5 mg/kg, route intravenous
[61] = tested on: Streptococcus pneumoniae; test: Antibacterial activity against Streptococcus pneumoniae Mef 4126; type: functional
[62] = tested on: Staphylococcus aureus; test: Antibacterial activity against Staphylococcus aureus 33591; type: functional
[63] = tested on: Haemophilus influenzae; test: Antibacterial activity against Haemophilus influenzae 49247; type: functional
[64] = Lung-to-plasma AUC ratio in Sprague-Dawley rat at 5 mg/kg, iv; type: ADME, organism-based; design: dose 5 mg/kg, route intravenous; conditions: lung and plasma

- MIC [2]: 0.025 µg/mL (≈ 0.0291 µM)
- MIC [3]: 0.1 µg/mL (≈ 0.116 µM)
- MIC [4]: ≤ 0.05 µg/mL
- MIC [5]: 0.1 µg/mL (≈ 0.116 µM)
- MIC [6]: 0.1 µg/mL (≈ 0.116 µM)
- MIC [7]: 0.025 µg/mL (≈ 0.0291 µM)
- MIC [9]: ≤ 0.05 µg/mL
- MIC [10]: 0.05 µg/mL (≈ 0.0582 µM)
- MIC [11]: 0.1 µg/mL (≈ 0.116 µM)
- MIC [12]: 0.025 µg/mL (≈ 0.0291 µM)
- MIC [13]: ≤ 0.05 µg/mL
- MIC [14]: 0.1 µg/mL (≈ 0.116 µM)
- MIC [15]: ≤ 0.05 µg/mL
- half-life [16]: 1.7 h
- MIC [17]: ≤ 0.05 µg/mL
- MIC [18]: ≤ 0.05 µg/mL
- MIC [19]: 0.025 µg/mL (≈ 0.0291 µM)
- MIC [20]: ≤ 0.05 µg/mL
- MIC [21]: ≤ 0.05 µg/mL
- MIC [22]: ≤ 0.05 µg/mL
- MIC [23]: 0.2 µg/mL (≈ 0.233 µM)
- MIC [24]: 0.78 µg/mL (≈ 0.909 µM)
- MIC [25]: 0.1 µg/mL (≈ 0.116 µM)
- MIC [26]: ≤ 0.05 µg/mL
- MIC [27]: 0.05 µg/mL (≈ 0.0582 µM)
- MIC [28]: ≤ 0.013 µg/mL
- bioavailability [29]: 91%
- MIC [30]: 0.025 µg/mL (≈ 0.0291 µM)
- Vd [31]: 12 L/kg
- MIC [32]: ≤ 0.05 µg/mL
- MIC [33]: 0.1 µg/mL (≈ 0.116 µM)
- MIC [34]: ≤ 0.05 µg/mL
- AUC [35]: 2300 ng·h/mL
- MIC [36]: ≤ 0.05 µg/mL
- MIC [38]: ≤ 0.05 µg/mL
- MIC [39]: 0.05 µg/mL (≈ 0.0582 µM)
- MIC [40]: 0.025 µg/mL (≈ 0.0291 µM)
- MIC [41]: 0.025 µg/mL (≈ 0.0291 µM)
- MIC [42]: 0.1 µg/mL (≈ 0.116 µM)
- MIC [43]: 0.025 µg/mL (≈ 0.0291 µM)
- MIC [44]: ≤ 0.05 µg/mL
- MIC [45]: 0.1 µg/mL (≈ 0.116 µM)
- MIC [46]: ≤ 0.05 µg/mL
- MIC [47]: ≤ 0.05 µg/mL
- MIC [48]: ≤ 0.05 µg/mL
- MIC [49]: 0.05 µg/mL (≈ 0.0582 µM)
- half-life [50]: 1.4 h
- bioavailability [51]: 26%
- MIC [52]: ≤ 0.013 µg/mL
- MIC [53]: 0.025 µg/mL (≈ 0.0291 µM)
- MIC [54]: 0.1 µg/mL (≈ 0.116 µM)
- MIC [55]: 0.4 µg/mL (≈ 0.466 µM)
- MIC [56]: 0.025 µg/mL (≈ 0.0291 µM)
- MIC [57]: ≤ 0.013 µg/mL
- MIC [58]: 0.025 µg/mL (≈ 0.0291 µM)
- MIC [59]: ≤ 0.05 µg/mL
- half-life [60]: 1.3 h
- MIC [61]: ≤ 0.05 µg/mL
- MIC [62]: > 50 µg/mL
- MIC [63]: 3.13 µg/mL (≈ 3.65 µM)
- Kp [64]: 94
SMILES: C=C[C@]12OC(=O)N(CCCCn3cnc(-c4ccc(Cl)nc4)c3)[C@@H]1[C@@H](C)C(=O)[C@H](C)C[C@@](C)(OC)[C@H](O[C@@H]1O[C@H](C)C[C@H](N(C)C)[C@H]1O)[C@@H](C)C(=O)[C@@H](C)C(=O)O[C@@H]2CC
- Activity [1]: Active
- Activity [8]: Active
- Activity [37]: Active
